Results on 15 molecules are retold here after patent publication US10137072B2, “Methods and compositions for providing broad spectrum photo protection using antioxidants” (L'OREAL, priority 2016, dated 2018).

For this assay, the system named is human skin keratinocytes and/or fibroblasts. As to the kind of experiment: in vitro ROS probe assay: protection of live skin cells against ROS induced by visible light and infrared radiation. Also noted: key to Visible light protection % / IR protection %: Strong: “strong” refers to a percent protection greater than 70%; “Medium” refers to a percent protection less than or equal to 70% but greater than or equal to 40%; “Low” refers to a percent protection less than 40%; Negative: The term “negative” is used when there is no protection. In kind it is cell-based. Particulars: cells pre-treated 24 hours at 10 μg/ml (0.001%), antioxidant removed before exposure; for inhibition at 10 µg/mL: Homo sapiens, light or radiation study. From the text: A sensitive in vitro ROS (Reactive Oxygen Species) probe was used to evaluate the protective effects of antioxidants on live skin cells against visible light and infrared radiation (IR). Based on a blind screening of 26 compounds, 12 compounds were discovered that efficiently (>40%) decrease the ROS induced by visible light and/or IR radiation on human skin keratinocytes and/or fibroblasts. These compounds (or mixtures of these compounds) provide biological protection for skin cells against visible light and infrared radiation.
Human cells were pre-treated with and without antioxidants for 24 hours at a very low concentration (10 μg/ml (0.001%)). After incubation for 24 hours, the cells were rinsed and the medium changed in order to remove all the antioxidants before light exposure. The cells were exposed to visible light (100 J/cm^2) and infrared radiation (200 J/cm^2) using Xenon Light Source 300W Monochromatic Light with Filters Max-303 (Asashi Spectra company). After exposure to the visible light and the IR radiation, a new ROS probe was incubated with the cells for one hour to track the in vitro ROS produced. A comfocal microscope and associated software was used to image the fluorescent signals from individual cells and quantify the fluorescence intensity. By comparing with control samples without a pretreatment of antioxidants, it was possible to quantify the protection effect.
In the table above, “strong” refers to a percent protection greater than 70%, “Medium” refers to a percent protection less than or equal to 70% but greater than or equal to 40%. “Low” refers to a percent protection less than 40%. The term “negative” is used when there is no protection. The protection percentage was defined according to the equation below (wherein the term “AOX” refers to “antioxidant”).
Since the in vitro tests were done on live human skin cells, kerotinocytes and fibroblasts, and the antioxidants in the cell culture media were removed before light exposure, the results directly predict the biological protection effects of the antioxidants on skin against visible light and infrared radiation.

The mark [1] stands for this setting: ROS induced by infrared radiation (200 J/cm^2), read-out: IR protection %.
Where [2] appears, read: ROS induced by visible light (100 J/cm^2), read-out: Visible light protection %.
[3] abbreviates: ROS induced by visible light (100 J/cm^2).
Where [4] appears, read: ROS induced by infrared radiation (200 J/cm^2).

Where two headings read alike, the source gives them in different places.

On to `C[C@@H]1O[C@@H](O[C@H]2C(=O)c3c(O)cc(O)cc3O[C@@H]2c2ccc(O)c(O)c2)[C@H](O)[C@H](O)[C@H]1O` [Astilbin, astilbin], for which the inhibition at 10 µg/mL reads like this: under setting [1], 40 to 70%; under setting [2], 40 to 70%.
For the molecule `O=C(CCc1ccc(O)cc1)c1c(O)cc(O)cc1O` [Phloretin], the “Visible light protection %” value under setting [3] is reported as “Negative”.
`COc1cc(/C=C/C(=O)O)ccc1O` [Ferulic Acid, ferulic acid]: the inhibition at 10 µg/mL by setting is: under setting [1], 40 to 70%; under setting [2], 40 to 70%.
As to `OC[C@H]1O[C@@H](Oc2cc(O)cc(/C=C/c3ccc(O)cc3)c2)[C@H](O)[C@@H](O)[C@@H]1O` [Polydatin, polydatin], the inhibition at 10 µg/mL under setting [1] was greater than 70% and the inhibition at 10 µg/mL under setting [2] was greater than 70%.
Turning to `O=C1N[C@H](C(=O)O)CS1` [Pro-cysteine], the inhibition at 10 µg/mL under setting [1] is less than 40%. For the same molecule, under setting [3], the “Visible light protection %” value is listed as “Negative”.
Take `Oc1ccc(C=Cc2cc(O)cc(O)c2)cc1` [Resveratrol]: the inhibition at 10 µg/mL under setting [2] was less than 40%. For the same molecule, the IR protection % entry under setting [4] is given as “Negative”.
On to `COc1ccc(CCC(=O)c2c(O)cc(O[C@@H]3O[C@H](CO)[C@@H](O)[C@H](O)[C@H]3O[C@@H]3O[C@@H](C)[C@H](O)[C@@H](O)[C@H]3O)cc2O)cc1O` [Neohesperidin DHC], for which the IR protection % entry under setting [4] is recorded as “Strong (“strong” refers to a percent protection greater than 70%)”. The “Visible light protection %” value under setting [3] is recorded as “Negative”.
As to `COc1ccc([C@@H]2CC(=O)c3c(O)cc(O)cc3O2)cc1O` [Hesperetin, hesperetin], the inhibition at 10 µg/mL under setting [1] was less than 40% and the inhibition at 10 µg/mL under setting [2] is greater than 70%.
As for `C=CC(C)(C)c1cc(/C=C/C(=O)c2ccc(O)cc2)c(OC)cc1O` [licochalcone A], the “Visible light protection %” value under setting [3] was “Negative”.
Consider `CC1=NCC[C@@H](C(=O)O)N1` [Ronacare Ectoin], for which, under setting [4], the IR protection % result is “Low (“Low” refers to a percent protection less than 40%)”. Also, the “Visible light protection %” value under setting [3] was “Negative”.
Turning to `COC1=C(OC)C(=O)C(C/C=C(\C)CC/C=C(\C)CC/C=C(\C)CC/C=C(\C)CC/C=C(\C)CC/C=C(\C)CC/C=C(\C)CC/C=C(\C)CC/C=C(\C)CCC=C(C)C)=C(C)C1=O` [Ubiquinone(coQ10), Ubiquinone], the inhibition at 10 µg/mL under setting [1] was greater than 70%.
`O=C1O[C@H]([C@@H](O)CO)C(O)=C1O` [Vit C]: the IR protection % result under setting [4] is “Low (“Low” refers to a percent protection less than 40%)”. Further, the “Visible light protection %” value under setting [3] is given as “Low (“Low” refers to a percent protection less than 40%)”.
Turning to `O=C(O)[C@H]1O[C@@H](Oc2cc3oc(-c4ccccc4)cc(=O)c3c(O)c2O)[C@H](O)[C@@H](O)[C@@H]1O` [Baicalin, baicalin], the inhibition at 10 µg/mL reads like this: under setting [1], 40 to 70%; under setting [2], greater than 70%.
Regarding catechin, the IR protection % result under setting [4] is “Medium (“Medium” refers to a percent protection less than or equal to 70% but greater than or equal to 40%)”. Besides, the “Visible light protection %” value under setting [3] is on record as “Strong (“strong” refers to a percent protection greater than 70%)”.
`NCCC(=O)N[C@@H](Cc1c[nH]cn1)C(=O)O` [Carnosin]: under setting [4], the IR protection % entry was “Low (“Low” refers to a percent protection less than 40%)”. In addition, the “Visible light protection %” value under setting [3] is reported as “Low (“Low” refers to a percent protection less than 40%)”.
